Results reported in the supplement of paper PMC7108870.

Columns and labels:
HEK293sieSTAT3(Y640F) [1] = test: drug sensitivity score (DSS), cytotoxicity CellTox Green (DSS (dimensionless)); higher = more cytotoxic; extreme values may be limits of the assay; settings: 72 h; STAT3 variant: Y640F (constitutively active)
Outline: (§1)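 Compounds were acoustically pre-plated in 384-well plates at 5 concentrations spaced by 10-fold dilutions, and HEK293 cells overexpressing wild-type or mutant STAT3 and carrying a STAT3-dependent luciferase reporter were added at 100,000 cells/ml in 20 μl. After 72 hours at 37°C and 5% CO2, the plates were read on a PHERAstar FS for CellTox Green fluorescence (485/520 nm) and then CellTiter-Glo luminescence. A drug sensitivity score derived from dose-response curve area was calculated in Breeze from values normalised to negative and positive control wells.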

HEK293sieSTAT3(wt) [2] = test: as above; settings: 72 h; STAT3 variant: wild type
Outline: as §1

HEK293sieSTAT3(Y640F) [3] = test: drug sensitivity score (DSS), viability CellTiter-Glo (DSS (dimensionless)); higher = more growth inhibition; extreme values may be limits of the assay; settings: 72 h; STAT3 variant: Y640F (constitutively active)
Outline: as §1

HEK293sieSTAT3(wt) [4] = test: as above; settings: 72 h; STAT3 variant: wild type
Outline: as §1

Structure (SMILES)	drug sensitivity score (HEK293sieSTAT3(Y640F) [1])	drug sensitivity score (HEK293sieSTAT3(wt) [2])	drug sensitivity score (HEK293sieSTAT3(Y640F) [3])	drug sensitivity score (HEK293sieSTAT3(wt) [4])
COc1ccc(C[C@H](NC(=O)[C@H](C)NC(=O)CN2CCOCC2)C(=O)N[C@@H](Cc2ccccc2)C(=O)C2(C)CO2)cc1 (stereo in doubt) [ONX-0914] (top concentration tested 10000 nM)	18.6	19.9	19.9	21.7
Cc1ccc(C(=O)N(CCCN)[C@@H](c2oc3cc(Cl)ccc3c(=O)c2Cc2ccccc2)C(C)C)cc1 (top concentration tested 100 nM)	0.83	8.48	10.7	12.3
CCn1cc(-c2ccnc3[nH]c(-c4cccc(CN(C)C)c4)cc23)c(-c2ccc(NC(=O)N(C)C)cc2)n1 (top concentration tested 1000 nM)	0	0.19	4.73	5.64
CN1CCC(COc2cnc(-c3cccc(Cn4nc(-c5cccc(C#N)c5)ccc4=O)c3)nc2)CC1 (top concentration tested 1000 nM)	0	0	0	0
CNC(=O)c1ccc(C)c(-n2c(C)cc(OCc3ccc(F)cc3F)c(Br)c2=O)c1 (top concentration tested 1000 nM)	0	0	4.08	3.62
C[C@@H](Oc1ccc2[nH]nc(/C=C/c3cnn(CCO)c3)c2c1)c1c(Cl)cncc1Cl (top concentration tested 1000 nM)	0	0	6.64	5.39
C[C@H]1Oc2cc(cnc2N)-c2c(nn(C)c2C#N)CN(C)C(=O)c2ccc(F)cc21 (top concentration tested 1000 nM)	0	0	5.03	1.84
O=C(NOC[C@H](O)CO)c1ccc(F)c(F)c1Nc1ccc(I)cc1F (top concentration tested 1000 nM)	0	0	0	0
CCOc1ccn(-c2ccc(F)cc2)c(=O)c1C(=O)Nc1ccc(Oc2ccnc(N)c2Cl)c(F)c1 (top concentration tested 2500 nM)	0	0	0.75	4.83
Cc1cccc(CC(=O)N2CCc3c2ccc(-c2cn(C)c4ncnc(N)c24)c3F)n1 (top concentration tested 2500 nM)	0	0.89	0	0
OCCn1cc(-c2cnc3nnn(Cc4ccc5ncccc5c4)c3n2)cn1 (top concentration tested 2500 nM)	0	0.12	1.78	0
CNC(=O)c1ccccc1Nc1nc(Nc2ccc3c(c2OC)CCC[C@H](N2CCN(CCO)CC2)C3)ncc1Cl (top concentration tested 5000 nM)	0	6.35	7.82	9.3
Cc1ncc(Cl)cc1NCc1ccc(C(=O)N[C@@H](CC2CCCC2)C(=O)NC2CC2)s1 (top concentration tested 5000 nM)	0.4	0	4.24	0.63
CC(=O)NCC(=O)N1[C@@H]2CC[C@H]1c1ccc(Nc3ncc(C(F)(F)F)c(NC4CCC4)n3)cc12 (top concentration tested 10000 nM)	1.98	8.9	13.2	16.8
CC(C)CC(=O)Nc1n[nH]c2c1CN(C(=O)C1CCN(C)CC1)C2(C)C (top concentration tested 10000 nM)	4.64	19	12.4	13.4
CC(C)Oc1ccc(C(=O)N[C@H](CNC(=O)CN(C)C)Cc2ccc(-c3cn4cccc([C@H](C)O)c4n3)cc2)cc1Cl (top concentration tested 10000 nM)	2.45	11.4	14.7	15.3
CCn1c(-c2nonc2N)nc2c(C#CC(C)(C)O)ncc(OC[C@H]3CCCNC3)c21 (top concentration tested 10000 nM)	0.19	1.28	13.7	16.9
CCn1c(C(=O)N(C2CC2)C2CC2)cc2c3c(ncn3C)c(Nc3cc(C)n(C)n3)nc21 (top concentration tested 10000 nM)	0	0	0.09	0.76
CN(c1ncccc1CNc1nc(Nc2ccc3c(c2)CC(=O)N3)ncc1C(F)(F)F)S(C)(=O)=O (top concentration tested 10000 nM)	1.32	7.18	8.82	12

Structure (SMILES)	drug sensitivity score (HEK293sieSTAT3(Y640F) [1])	drug sensitivity score (HEK293sieSTAT3(wt) [2])	drug sensitivity score (HEK293sieSTAT3(Y640F) [3])	drug sensitivity score (HEK293sieSTAT3(wt) [4])
CNc1nc(-c2ccc3c(N)n[nH]c3c2)cc(N2C[C@@H](C(=O)NC3CCCCC3)CC[C@H]2C)n1 (top concentration tested 10000 nM)	0.35	0	1.37	4.33
COCC(=O)NC/C=C/c1ccc2ncnc(Nc3ccc(Oc4ccc(C)nc4)c(C)c3)c2c1 (top concentration tested 10000 nM)	0	2.66	1.25	3.61
COc1cc2ncnc(Oc3cccc(NC(=O)Nc4cc(C(C)(C)C(F)(F)F)on4)c3)c2cc1OC (top concentration tested 10000 nM)	0.44	0	1.53	2.4
COc1ccc(-c2cc3c(C)nc(N)nc3n([C@H]3CC[C@H](OCCO)CC3)c2=O)cn1 (top concentration tested 10000 nM)	0	2.91	20.1	23.3
CS(=O)(=O)N1CCc2c(-c3cnc(N)nc3)nc(N3CCOCC3)nc21 (top concentration tested 10000 nM)	0	5.98	12	15.5
C[C@@H](Oc1cc(-n2cnc3ccc(CN4CCN(C)CC4)cc32)sc1C(N)=O)c1ccccc1C(F)(F)F (top concentration tested 10000 nM)	15.3	37.4	37.9	36.5
C[C@@]1(C(=O)Nc2ccc(F)nc2)CCCN1c1nc(Nc2cc(C3CC3)n[nH]2)c2cccn2n1 (top concentration tested 10000 nM)	0.48	5.21	17.4	15.8
Cc1c(Cn2c(C)nc3c(C(=O)O)cc(N4CCOCC4)cc32)cccc1C(F)(F)F (top concentration tested 10000 nM)	0	0.07	0.96	3
Cc1c(NC(=O)OC[C@@H]2COCCN2)cn2ncnc(Nc3ccc4c(cnn4Cc4cccc(F)c4)c3)c12 (top concentration tested 10000 nM)	0.83	6.8	2.59	6.6
Cc1nc(Nc2n[nH]c3c2CN(C(=O)N[C@H](CN(C)C)c2ccccc2)C3(C)C)c2sccc2n1 (top concentration tested 10000 nM)	0.9	34	19.3	32.7
Cn1cc(-c2ccc3nnc(C(F)(F)c4ccc5ncccc5c4)n3n2)cn1 (top concentration tested 10000 nM)	0	0	0	3.09
Cn1cc(C2=Nc3cc(NC(=O)C(N)C4CCCCC4)cc4c3C2=CNNC4=O)cn1 (centres undefined) (top concentration tested 10000 nM)	2.57	5.91	17.5	15.8
Nc1nccc(-c2c(-c3ccc(F)cc3)ncn2C2CCCCC2)n1 (top concentration tested 10000 nM)	0	0	3.49	4.08
O=C(NOCC1CC1)c1ccc(F)c(F)c1Nc1ccc(I)cc1Cl (top concentration tested 10000 nM)	0	0	1.63	2.33
O=C(Nc1ccc2[nH]nc(-c3ccncc3)c2c1)[C@@H]1CCN(CC(=O)N2CCN(c3ccc(-c4ncccn4)cc3)CC2)C1 (top concentration tested 10000 nM)	0.69	0	3.37	1.44
O=C1NC(=O)/C(=C/c2ccc3nccc(-c4ccncc4)c3c2)S1 (top concentration tested 10000 nM)	0	3.49	15.4	11.3
Cc1ccc(C(=O)Nc2ccc(CN3CCN(C)CC3)c(C(F)(F)F)c2)cc1C#Cc1cnc2cccnn12 [Ponatinib] (top concentration tested 1000 nM)			6.74	9.83
CCC(C)(C)C(=O)O[C@H]1C[C@@H](C)C=C2C=C[C@H](C)[C@H](CC[C@@H]3C[C@@H](O)CC(=O)O3)[C@H]21 [Simvastatin] (top concentration tested 10000 nM)			0.89	3.28
